Key:
Test in all cases: apparent dissociation constant (pKDapp, Kinobeads competition, Cheng-Prusoff corrected) (-log10 M); higher = tighter binding
[1] = target: BCR (UniProt P11274); details: affinity matrix / lysate: Kinobeads, mixed HEK293/K-562/placenta lysate
[2] = target: EGFR (UniProt P00533); details: affinity matrix / lysate: Kinobeads, mixed HEK293/K-562/placenta lysate
[3] = target: STK39 (UniProt Q9UEW8); details: affinity matrix / lysate: Kinobeads, mixed HEK293/K-562/placenta lysate
[4] = target: TBK1 (UniProt Q9UHD2); details: affinity matrix / lysate: Kinobeads, mixed HEK293/K-562/placenta lysate
[5] = target: MARK1 (UniProt Q9P0L2); details: affinity matrix / lysate: Kinobeads, mixed HEK293/K-562/placenta lysate
[6] = target: PIP4K2B (UniProt P78356); details: affinity matrix / lysate: Kinobeads, mixed HEK293/K-562/placenta lysate
[7] = target: MARK2 (UniProt Q7KZI7); details: affinity matrix / lysate: Kinobeads, mixed HEK293/K-562/placenta lysate
[8] = target: MET (UniProt P08581); details: affinity matrix / lysate: Kinobeads, mixed HEK293/K-562/placenta lysate
[9] = target: LATS1 (UniProt O95835); details: affinity matrix / lysate: Kinobeads, mixed HEK293/K-562/placenta lysate
[10] = target: EPHB4 (UniProt P54760); details: affinity matrix / lysate: Kinobeads, mixed HEK293/K-562/placenta lysate
[11] = target: MAP3K15 (UniProt Q6ZN16); details: affinity matrix / lysate: Kinobeads, mixed HEK293/K-562/placenta lysate
[12] = target: MAP2K5 (UniProt Q13163); details: affinity matrix / lysate: Kinobeads, mixed HEK293/K-562/placenta lysate
[13] = target: MAP2K1 (UniProt Q02750); details: affinity matrix / lysate: Kinobeads, mixed HEK293/K-562/placenta lysate
[14] = target: DSTYK (UniProt Q6XUX3); details: affinity matrix / lysate: Kinobeads, mixed HEK293/K-562/placenta lysate
[15] = target: MAP3K2 (UniProt Q9Y2U5); details: affinity matrix / lysate: Kinobeads, mixed HEK293/K-562/placenta lysate
[16] = target: RPS6KA6 (UniProt Q9UK32); details: affinity matrix / lysate: Kinobeads, mixed HEK293/K-562/placenta lysate
[17] = target: PKMYT1 (UniProt Q99640); details: affinity matrix / lysate: Kinobeads, mixed HEK293/K-562/placenta lysate
[18] = target: NEK3 (UniProt P51956); details: affinity matrix / lysate: Kinobeads, mixed HEK293/K-562/placenta lysate
[19] = target: YES1 (UniProt P07947); details: affinity matrix / lysate: Kinobeads, mixed HEK293/K-562/placenta lysate
[20] = target: PIK3C3 (UniProt Q8NEB9); details: affinity matrix / lysate: Lipid Kinobeads, mixed HeLa/Jurkat/K-562 lysate
[21] = target: BMPR2 (UniProt Q13873); details: affinity matrix / lysate: Kinobeads, mixed HEK293/K-562/placenta lysate
[22] = target: SNRK (UniProt Q9NRH2); details: affinity matrix / lysate: Kinobeads, mixed HEK293/K-562/placenta lysate
[23] = target: STK4 (UniProt Q13043); details: affinity matrix / lysate: Kinobeads, mixed HEK293/K-562/placenta lysate
[24] = target: RIOK2 (UniProt Q9BVS4)
[25] = target: ACVR2A (UniProt P27037); details: affinity matrix / lysate: Kinobeads, mixed HEK293/K-562/placenta lysate
[26] = target: CSNK1D (UniProt P48730); details: affinity matrix / lysate: Kinobeads, mixed HEK293/K-562/placenta lysate
[27] = target: PRKCI (UniProt P41743); details: affinity matrix / lysate: Kinobeads, mixed HEK293/K-562/placenta lysate
[28] = target: STK11 (UniProt Q15831); details: affinity matrix / lysate: Kinobeads, mixed HEK293/K-562/placenta lysate
[29] = target: ICK (UniProt Q9UPZ9); details: affinity matrix / lysate: Kinobeads, mixed HEK293/K-562/placenta lysate
[30] = target: EIF2AK4 (UniProt Q9P2K8); details: affinity matrix / lysate: Kinobeads, mixed HEK293/K-562/placenta lysate
[31] = target: PIP4K2A (UniProt P48426); details: affinity matrix / lysate: Kinobeads, mixed HEK293/K-562/placenta lysate
[32] = target: PKN2 (UniProt Q16513); details: affinity matrix / lysate: Kinobeads, mixed HEK293/K-562/placenta lysate
[33] = target: CDK5 (UniProt Q00535); details: affinity matrix / lysate: Kinobeads, mixed HEK293/K-562/placenta lysate
[34] = affinity matrix / lysate: Kinobeads, mixed HEK293/K-562/placenta lysate
[35] = affinity matrix / lysate: Lipid Kinobeads, mixed HeLa/Jurkat/K-562 lysate

Sequence of RIOK2 (Q9BVS4 whole entry, looked up): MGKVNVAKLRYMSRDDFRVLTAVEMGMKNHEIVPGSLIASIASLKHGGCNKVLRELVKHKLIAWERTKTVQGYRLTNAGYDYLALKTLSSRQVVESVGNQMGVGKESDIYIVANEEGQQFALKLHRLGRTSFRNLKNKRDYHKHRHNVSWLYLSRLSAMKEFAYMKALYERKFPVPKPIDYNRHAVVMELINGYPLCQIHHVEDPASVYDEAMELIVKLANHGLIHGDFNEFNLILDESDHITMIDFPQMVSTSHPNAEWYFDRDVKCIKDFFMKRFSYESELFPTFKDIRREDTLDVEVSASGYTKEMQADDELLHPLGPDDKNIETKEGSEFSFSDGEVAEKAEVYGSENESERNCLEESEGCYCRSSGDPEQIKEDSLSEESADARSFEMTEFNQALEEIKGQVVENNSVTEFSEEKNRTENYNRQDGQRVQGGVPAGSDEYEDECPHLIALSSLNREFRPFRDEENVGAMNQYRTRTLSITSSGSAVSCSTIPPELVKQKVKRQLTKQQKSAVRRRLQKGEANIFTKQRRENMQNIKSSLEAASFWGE
Sequence of MAP2K5 (Q13163 whole entry): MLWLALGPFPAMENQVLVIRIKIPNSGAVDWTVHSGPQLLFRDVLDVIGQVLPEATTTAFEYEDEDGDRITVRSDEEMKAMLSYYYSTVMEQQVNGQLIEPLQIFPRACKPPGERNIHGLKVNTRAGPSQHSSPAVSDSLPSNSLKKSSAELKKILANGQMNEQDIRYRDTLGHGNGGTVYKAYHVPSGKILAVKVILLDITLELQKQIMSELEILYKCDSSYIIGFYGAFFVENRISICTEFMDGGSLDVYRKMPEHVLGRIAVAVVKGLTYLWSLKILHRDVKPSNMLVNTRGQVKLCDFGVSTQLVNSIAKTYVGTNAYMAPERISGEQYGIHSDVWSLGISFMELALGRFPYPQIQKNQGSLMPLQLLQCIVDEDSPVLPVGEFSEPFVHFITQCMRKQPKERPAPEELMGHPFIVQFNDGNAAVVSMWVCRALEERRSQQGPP
Sequence of RPS6KA6 (Q9UK32 whole entry): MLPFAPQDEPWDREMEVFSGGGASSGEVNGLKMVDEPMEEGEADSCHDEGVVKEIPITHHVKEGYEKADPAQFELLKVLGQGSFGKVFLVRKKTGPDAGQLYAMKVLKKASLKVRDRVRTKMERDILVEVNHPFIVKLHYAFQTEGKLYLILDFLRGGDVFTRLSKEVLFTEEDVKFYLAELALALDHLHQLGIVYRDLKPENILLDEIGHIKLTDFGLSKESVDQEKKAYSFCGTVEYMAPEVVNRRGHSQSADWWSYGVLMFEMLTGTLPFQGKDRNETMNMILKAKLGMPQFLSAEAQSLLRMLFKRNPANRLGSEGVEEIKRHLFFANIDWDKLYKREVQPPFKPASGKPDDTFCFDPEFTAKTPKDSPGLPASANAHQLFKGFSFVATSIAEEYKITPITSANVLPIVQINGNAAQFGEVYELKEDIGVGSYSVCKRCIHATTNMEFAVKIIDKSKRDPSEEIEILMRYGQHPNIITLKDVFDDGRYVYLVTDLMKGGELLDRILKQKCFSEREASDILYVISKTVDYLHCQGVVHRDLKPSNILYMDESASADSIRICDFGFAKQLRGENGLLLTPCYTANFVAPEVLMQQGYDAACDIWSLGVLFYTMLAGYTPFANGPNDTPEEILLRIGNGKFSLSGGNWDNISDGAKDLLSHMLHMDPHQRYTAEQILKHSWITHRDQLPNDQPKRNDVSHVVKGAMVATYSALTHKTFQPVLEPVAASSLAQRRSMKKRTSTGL
Sequence of BCR (P11274 whole entry): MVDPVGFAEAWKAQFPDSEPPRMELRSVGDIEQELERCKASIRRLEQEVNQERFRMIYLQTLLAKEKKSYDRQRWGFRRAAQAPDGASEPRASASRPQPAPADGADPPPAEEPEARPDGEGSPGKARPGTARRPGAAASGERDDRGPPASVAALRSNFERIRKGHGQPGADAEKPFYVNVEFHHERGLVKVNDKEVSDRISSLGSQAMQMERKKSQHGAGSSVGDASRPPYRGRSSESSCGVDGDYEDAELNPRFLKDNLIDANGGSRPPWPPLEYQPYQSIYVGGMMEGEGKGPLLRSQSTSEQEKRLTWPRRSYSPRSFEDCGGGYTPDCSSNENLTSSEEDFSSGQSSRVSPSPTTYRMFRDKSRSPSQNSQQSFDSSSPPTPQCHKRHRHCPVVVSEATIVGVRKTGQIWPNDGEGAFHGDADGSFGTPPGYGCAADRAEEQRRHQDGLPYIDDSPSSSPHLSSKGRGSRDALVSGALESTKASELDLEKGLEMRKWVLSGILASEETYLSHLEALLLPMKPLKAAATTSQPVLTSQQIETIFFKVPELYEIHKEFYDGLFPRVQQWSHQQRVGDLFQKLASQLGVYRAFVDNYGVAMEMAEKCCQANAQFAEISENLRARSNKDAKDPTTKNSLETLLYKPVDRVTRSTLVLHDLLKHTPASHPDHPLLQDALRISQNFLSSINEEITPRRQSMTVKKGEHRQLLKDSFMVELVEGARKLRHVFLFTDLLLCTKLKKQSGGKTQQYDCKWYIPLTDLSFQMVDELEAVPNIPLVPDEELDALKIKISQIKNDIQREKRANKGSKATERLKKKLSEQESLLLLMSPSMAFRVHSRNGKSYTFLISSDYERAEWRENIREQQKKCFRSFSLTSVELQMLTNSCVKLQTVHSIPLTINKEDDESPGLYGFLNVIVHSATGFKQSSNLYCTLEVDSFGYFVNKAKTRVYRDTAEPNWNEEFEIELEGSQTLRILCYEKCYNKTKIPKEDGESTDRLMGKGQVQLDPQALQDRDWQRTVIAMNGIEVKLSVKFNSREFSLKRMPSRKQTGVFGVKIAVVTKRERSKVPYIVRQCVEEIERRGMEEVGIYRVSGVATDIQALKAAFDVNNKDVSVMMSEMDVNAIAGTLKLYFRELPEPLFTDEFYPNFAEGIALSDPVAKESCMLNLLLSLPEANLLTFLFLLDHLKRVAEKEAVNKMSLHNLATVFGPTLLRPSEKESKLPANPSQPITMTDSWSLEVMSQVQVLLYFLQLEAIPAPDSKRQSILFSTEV
Sequence of SNRK (Q9NRH2 whole entry): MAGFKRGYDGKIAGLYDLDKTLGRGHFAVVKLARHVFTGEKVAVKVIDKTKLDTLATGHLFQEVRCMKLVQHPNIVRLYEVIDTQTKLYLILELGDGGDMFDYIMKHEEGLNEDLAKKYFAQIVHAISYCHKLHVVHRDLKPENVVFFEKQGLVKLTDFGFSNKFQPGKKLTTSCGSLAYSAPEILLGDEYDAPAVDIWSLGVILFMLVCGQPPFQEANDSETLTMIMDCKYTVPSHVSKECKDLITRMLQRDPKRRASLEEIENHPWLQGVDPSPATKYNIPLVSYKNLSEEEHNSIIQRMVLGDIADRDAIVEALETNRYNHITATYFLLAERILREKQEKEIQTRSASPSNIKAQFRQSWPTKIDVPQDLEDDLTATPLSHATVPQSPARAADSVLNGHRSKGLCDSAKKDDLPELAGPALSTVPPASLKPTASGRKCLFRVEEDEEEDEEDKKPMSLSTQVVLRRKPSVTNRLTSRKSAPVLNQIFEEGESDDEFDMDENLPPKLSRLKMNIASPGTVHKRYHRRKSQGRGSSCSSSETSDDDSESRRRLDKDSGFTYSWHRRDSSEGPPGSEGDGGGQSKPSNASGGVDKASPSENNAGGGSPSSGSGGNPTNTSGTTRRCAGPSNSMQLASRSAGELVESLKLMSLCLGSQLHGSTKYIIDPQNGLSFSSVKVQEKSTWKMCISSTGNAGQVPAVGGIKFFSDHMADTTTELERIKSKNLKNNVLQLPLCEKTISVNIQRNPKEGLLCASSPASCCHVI
Sequence of MARK1 (Q9P0L2 whole entry, looked up): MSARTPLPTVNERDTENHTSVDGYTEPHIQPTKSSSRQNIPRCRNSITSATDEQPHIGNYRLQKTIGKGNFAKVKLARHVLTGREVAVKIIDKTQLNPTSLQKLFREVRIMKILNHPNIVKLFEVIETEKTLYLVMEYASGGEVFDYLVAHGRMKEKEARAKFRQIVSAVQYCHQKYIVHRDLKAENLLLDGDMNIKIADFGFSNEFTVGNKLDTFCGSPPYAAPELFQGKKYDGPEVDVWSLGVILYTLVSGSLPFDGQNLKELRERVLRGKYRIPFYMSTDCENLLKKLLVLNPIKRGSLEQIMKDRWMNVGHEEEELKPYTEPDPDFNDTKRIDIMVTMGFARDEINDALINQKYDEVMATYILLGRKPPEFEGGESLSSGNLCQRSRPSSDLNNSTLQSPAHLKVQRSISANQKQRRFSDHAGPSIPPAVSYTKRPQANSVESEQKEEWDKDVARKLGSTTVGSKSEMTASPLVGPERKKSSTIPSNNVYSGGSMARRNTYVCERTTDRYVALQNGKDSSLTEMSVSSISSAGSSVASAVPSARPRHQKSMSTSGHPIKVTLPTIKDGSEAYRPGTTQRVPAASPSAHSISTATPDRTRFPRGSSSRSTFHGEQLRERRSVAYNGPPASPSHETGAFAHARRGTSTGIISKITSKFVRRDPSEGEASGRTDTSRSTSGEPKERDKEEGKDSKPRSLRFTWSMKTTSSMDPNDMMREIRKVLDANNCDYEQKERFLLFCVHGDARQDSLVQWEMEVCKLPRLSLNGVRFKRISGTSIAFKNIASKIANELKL
Sequence of PIP4K2A (P48426 whole entry): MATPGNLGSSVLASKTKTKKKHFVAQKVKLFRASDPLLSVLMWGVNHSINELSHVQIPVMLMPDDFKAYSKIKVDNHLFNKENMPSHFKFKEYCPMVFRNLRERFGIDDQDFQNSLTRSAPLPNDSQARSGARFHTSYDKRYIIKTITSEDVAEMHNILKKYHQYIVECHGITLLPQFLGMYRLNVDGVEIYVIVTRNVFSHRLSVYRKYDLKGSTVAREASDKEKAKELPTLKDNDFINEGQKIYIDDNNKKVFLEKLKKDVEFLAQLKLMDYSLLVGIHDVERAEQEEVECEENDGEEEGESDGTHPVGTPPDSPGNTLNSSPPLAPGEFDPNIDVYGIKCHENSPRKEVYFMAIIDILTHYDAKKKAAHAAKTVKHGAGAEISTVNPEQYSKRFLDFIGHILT

Row | apparent dissociation constant (-log10 M) [1] | apparent dissociation constant (-log10 M) [2] | apparent dissociation constant (-log10 M) [3] | apparent dissociation constant (-log10 M) [4] | apparent dissociation constant (-log10 M) [5] | apparent dissociation constant (-log10 M) [6] | apparent dissociation constant (-log10 M) [7] | apparent dissociation constant (-log10 M) [8] | apparent dissociation constant (-log10 M) [9] | apparent dissociation constant (-log10 M) [10] | apparent dissociation constant (-log10 M) [11] | apparent dissociation constant (-log10 M) [12] | apparent dissociation constant (-log10 M) [13] | apparent dissociation constant (-log10 M) [14] | apparent dissociation constant (-log10 M) [15] | apparent dissociation constant (-log10 M) [16] | apparent dissociation constant (-log10 M) [17] | apparent dissociation constant (-log10 M) [18] | apparent dissociation constant (-log10 M) [19] | apparent dissociation constant (-log10 M) [20] | apparent dissociation constant (-log10 M) [21] | apparent dissociation constant (-log10 M) [22] | apparent dissociation constant (-log10 M) [23] | apparent dissociation constant (-log10 M) [24, 34] | apparent dissociation constant (-log10 M) [24, 35] | apparent dissociation constant (-log10 M) [25] | apparent dissociation constant (-log10 M) [26] | apparent dissociation constant (-log10 M) [27] | apparent dissociation constant (-log10 M) [28] | apparent dissociation constant (-log10 M) [29] | apparent dissociation constant (-log10 M) [30] | apparent dissociation constant (-log10 M) [31] | apparent dissociation constant (-log10 M) [32] | apparent dissociation constant (-log10 M) [33] | SMILES
1 | < 6 | < 6 | < 6 | < 6 | < 6 | < 6 | < 6 | < 6 | < 6 | < 6 | < 6 | < 6 | < 6 | < 6 | < 6 | < 6 | < 6 | < 6 | < 6 | < 6 | < 6 | < 6 | < 6 | < 6 | < 6 | < 6 | < 6 | < 6 | < 6 | < 6 | < 6 | < 6 | < 6 | < 6 | CCNC(=O)Nc1ccc(-c2nc(N3CCOC[C@@H]3C)c3c(n2)C(C)(C)S(=O)(=O)C3)cc1 [CZ415]
2 | < 6 | < 6 | < 6 | < 6 | < 6 | < 6 | < 6 | < 6 | < 6 | < 6 | < 6 | < 6 | < 6 | < 6 | < 6 | < 6 | < 6 | < 6 | < 6 | < 6 | < 6 | < 6 | < 6 | < 6 | < 6 | < 6 | < 6 | < 6 | < 6 | < 6 | < 6 | < 6 | < 6 | < 6 | COc1ccc(-c2ccc3c(N4CCOC[C@@H]4C)nc(N4CCOC[C@@H]4C)nc3n2)cc1CO [AZD8055]
